pIC50: −log10 of the molar value.
Columns and labels:
Assay type in all cases: cell-based, human
[1] = tested on: PC3, DU145, A549 and HT29 cell lines; test: Cancer cell growth inhibition, IC50 values used in assay for four cell lines (Example 5); conditions: Homo sapiens, value used to make up 50:50 IC50 mixtures
Experimental: (§1) Tumour cells were seeded in duplicate in 96-well plates at 2-5,000 per microtitre well containing RPMI culture medium/10% foetal calf serum. The cells were allowed to grow until the controls were nearly confluent after 5-6 days. Plates were then washed with PBS, fixed in ethanol and stained with 50 μL/well of SRB solution (sulforhodamine, 0.4% in 1% acetic acid), followed by washing with 1% acetic acid and solubilisation in Tris. The absorbance was read at 564 nm using an ELISA reader.
(§2) The IC50, or concentration required to inhibit cell growth by 50%, was determined from the percentage inhibition versus concentration data using the probit calculation methods of Finney (Finney D J (1971). Probit Analysis. 3rd Edition. Cambridge University Press).
The cell seeding and ELISA plate methodology of Example 2 were used for determining inhibition of four cancer cell lines. IC50 values were determined for the steroid saponins dioscin, deltonin and prosapogenin A, and their mixtures with cisplatin, docetaxel, doxorubicin and vincristine, using PC3, DU145, A549 and HT29 cell lines.

A549 cell line = test: Cancer cell growth inhibition, SRB dye assay (single agents and 50:50 IC50 mixtures); conditions: Homo sapiens, 144 h, Example 4, value used to make up 50:50 IC50 mixtures, read-out: IC50 values used in assay
Experimental: Cancer cells were seeded the day before application of drug in triplicate or quadruplicate in 96-well plates, allowed to grow in the presence of drug for 6 days before cell growth relative to untreated control wells was determined with a dye assay.
Cells were seeded in triplicate or quadruplicate at 3-4,000 per microtitre well in 90 μl of RPMI culture medium/10% foetal calf serum/penicillin, streptomycin mix, treated with 10 μl of drug (prepared in a dilution plate at 10× concentration required), and allowed to grow until the controls were nearly confluent (6 days).
SRB: Plates were washed with PBS, fixed with methylated spirits, washed with tap water and stained with 50 μL/well of SRB solution (sulforhodamine, 0.4% in 1% acetic acid), followed by washing with tap water and 1% acetic acid, solubilisation in Tris and absorbance read at 564 nm in an ELISA reader.
Data was collected using ELISA plate reader software—SOFTmax PRO3.1.2, then imported into EXCEL. The mean and SD of replicates were calculated as a % of control, after subtraction of the blank value (wells with no cells). A graph was plotted of % control vs dose of agent and IC50 (half maximal inhibitory concentration) values determined.
as §1, §2
The inhibitory data from each mixture was used to determine an IC50 of IC50 value, where the concentrations used were the Multiplying Factor values. In order to determine the actual IC50 contribution of each component in the two-component mixture, the IC50 of IC50 value was multiplied by the IC50 of the individual component. This can then be used to determine the reduction in IC50 contribution (ie, reduction in dose) of the chemotherapeutic agent due to the presence of the steroid saponin in the mixture. A simpler way of determining the reduction in dose is to use the following simple formula: […]

MCF7 cell line = test: as above
Experimental: Cancer cells were seeded the day before application of drug in triplicate or quadruplicate in 96-well plates, allowed to grow in the presence of drug for 6 days before cell growth relative to untreated control wells was determined with a dye assay. Cells were seeded in triplicate or quadruplicate at 3-4,000 per microtitre well in 90 μl of RPMI culture medium/10% foetal calf serum/penicillin, streptomycin mix, treated with 10 μl of drug (prepared in a dilution plate at 10× concentration required), and allowed to grow until the controls were nearly confluent (6 days). SRB: Plates were washed with PBS, fixed with methylated spirits, washed with tap water and stained with 50 μL/well of SRB solution (sulforhodamine, 0.4% in 1% acetic acid), followed by washing with tap water and 1% acetic acid, solubilisation in Tris and absorbance read at 564 nm in an ELISA reader. Data was collected using ELISA plate reader software—SOFTmax PRO3.1.2, then imported into EXCEL. The mean and SD of replicates were calculated as a % of control, after subtraction of the blank value (wells with no cells). A graph was plotted of % control vs dose of agent and IC50 (half maximal inhibitory concentration) values determined. […] The cells were allowed to grow until the controls were nearly confluent after 5-6 days. Plates were then washed with PBS, fixed in ethanol and stained with 50 μL/well of SRB solution (sulforhodamine, 0.4% in 1% acetic acid), followed by washing with 1% acetic acid and solubilisation in Tris. The absorbance was read at 564 nm using an ELISA reader. […] Cambridge University Press). […] The inhibitory data from each mixture was used to determine an IC50 of IC50 value, where the concentrations used were the Multiplying Factor values. In order to determine the actual IC50 contribution of each component in the two-component mixture, the IC50 of IC50 value was multiplied by the IC50 of the individual component. This can then be used to determine the reduction in IC50 contribution (ie, reduction in dose) of the chemotherapeutic agent due to the presence of the steroid saponin in the mixture. A simpler way of determining the reduction in dose is to use the following simple formula: […]

For `C[C@@H]1CC[C@@]2(OC1)O[C@H]1C[C@H]3[C@@H]4CC=C5C[C@@H](O[C@@H]6O[C@H](CO)[C@@H](O[C@@H]7O[C@H](CO)[C@@H](O)[C@H](O)[C@H]7O)[C@H](O)[C@H]6O[C@@H]6O[C@@H](C)[C@H](O)[C@@H](O)[C@H]6O)CC[C@]5(C)[C@H]4CC[C@]3(C)[C@H]1[C@@H]2C` [Deltonin, diosgenin Rha2, [Glc4], Glc], the pIC50 [1] was 6.00, the pIC50 (A549 cell line) was 6.00 and the “Vincristine Dose Reduction” value (MCF7 cell line; 50:50 IC50 mixture vs vincristine alone, Example 3) was “consistent reduction in dosage”. It also gave a pIC50 (MCF7 cell line; Homo sapiens, 144 h, Example 3, value used to make up 50:50 IC50 mixtures, read-out: IC50 values used in assay) of 6.00.
